Data from the supplement of paper PMC10627819.

Assays:
B. subtilis 168 [1] = assay: fitness (endpoint OD595 vs no drug) (fraction); higher = more growth
In short: (§1)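 Bacterial growth was followed in 384-well plates seeded at OD595 0.01, with 30 µl per well, or 55 µl for S. pneumoniae, in TSB, LB Lennox or CY at 37 °C. OD595 was read every 30 min for 14 h, and each reading had the first reading subtracted as background. Fitness is the background-corrected optical density at entry into stationary phase divided by the robust mean of the no-drug control wells. This ratio is capped at 1.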

S. aureus Newman [2] = assay: as above; settings: one replicate
In short: as §1

B. subtilis 168 [3] = assay: Bliss interaction score (quartile over a dose matrix) (fitness difference); higher = more antagonism (negative = synergy)
In short: (§2)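 Quartiles summarise the Bliss score over technical, biological and donor/recipient replicates, where the score is observed minus expected fitness under a product model. Expected fitness uses single-drug values inferred from combination data. Fitness is OD595 at entry into stationary phase over the plate's robust no-drug mean, capped at 1.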

S. aureus DSM 20231 = assay: as above
In short: as §2

S. aureus Newman [4] = assay: as above
In short: as §2

S. pneumoniae D39V = assay: as above
In short: as §2
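For Bliss interaction score (quartile over a dose matrix) in this document: first quartile when negative (synergy) and third quartile when positive (antagonism).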

CO/N=C(\C(=O)N[C@@H]1C(=O)N2C(C(=O)O)=C(COC(N)=O)CS[C@H]12)c1ccco1 [Cefuroxime] + COc1cccc2c1C(=O)c1c(O)c3c(c(O)c1C2=O)C[C@@](O)(C(=O)CO)C[C@@H]3O[C@H]1C[C@H](N)[C@H](O)[C@H](C)O1 [Doxorubicin]
fitness
Settings | first compound 0.04875 µg/mL | first compound 0.0975 µg/mL | first compound 0.195 µg/mL
B. subtilis 168 [1], partner 0.625 µg/mL | 0.667 | 0.575 | 0.343
B. subtilis 168 [1], partner 1.25 µg/mL | 0.63 | 0.528 | 0.288
B. subtilis 168 [1], partner 2.5 µg/mL | 0.371 | 0.293 | 0.025
S. aureus Newman [2], partner 0.625 µg/mL | 0.891 | 0.873 | 0.784
S. aureus Newman [2], partner 1.25 µg/mL | 0.854 | 0.753 | 0.682
S. aureus Newman [2], partner 2.5 µg/mL | 0.735 | 0.617 | 0.659

fitness, B. subtilis 168 [1], one replicate
Settings | first compound 0.39 µg/mL | first compound 0.78 µg/mL | first compound 1.562 µg/mL | first compound 3.125 µg/mL | first compound 6.25 µg/mL
partner 0.625 µg/mL | 0.264 | 0.272 | 0.365 | 0.208 | 0.142
partner 1.25 µg/mL | 0.25 | 0.17 | 0.0862 | 0.0711 | 0.0435
partner 2.5 µg/mL | 0.018 | 0.0243 | 0.0327 | 0.0359 | 0.0405

Settings | Bliss interaction score
B. subtilis 168 [3] | -0.158
S. aureus DSM 20231 | 0.0859
S. aureus Newman [4] | -0.0601
S. pneumoniae D39V | -0.0401

CO/N=C(\C(=O)N[C@@H]1C(=O)N2C(C(=O)O)=C(COC(N)=O)CS[C@H]12)c1ccco1 [Cefuroxime] + Cc1cc(NS(=O)(=O)c2ccc(N)cc2)no1 [Sulfamethoxazol]
fitness
Settings | first compound 0.04875 µg/mL | first compound 0.0975 µg/mL | first compound 0.195 µg/mL
B. subtilis 168 [1], partner 1 µg/mL | 0.708 | 0.67 | 0.404
B. subtilis 168 [1], partner 2 µg/mL | 0.709 | 0.632 | 0.398
B. subtilis 168 [1], partner 4 µg/mL | 0.687 | 0.636 | 0.5
S. aureus Newman [2], partner 1 µg/mL | ≥ 1 | 0.954 | 0.879
S. aureus Newman [2], partner 2 µg/mL | 0.953 | 0.966 | 0.836
S. aureus Newman [2], partner 4 µg/mL | 0.986 | 0.935 | 0.84

fitness, B. subtilis 168 [1], one replicate
Settings | first compound 0.195 µg/mL | first compound 0.39 µg/mL | first compound 0.78 µg/mL | first compound 1.562 µg/mL | first compound 3.125 µg/mL | first compound 6.25 µg/mL
partner 0.5 µg/mL | 0.405 | 0.438 | 0.356 | – | – | –
partner 1 µg/mL | – | 0.0396 | 0.107 | 0.267 | 0.221 | 0.202
partner 2 µg/mL | – | 0.29 | 0.262 | 0.251 | 0.198 | 0.132
partner 4 µg/mL | – | – | – | 0.252 | 0.206 | 0.162

Settings | Bliss interaction score
B. subtilis 168 [3] | -0.0536
S. aureus DSM 20231 | 0.111
S. aureus Newman [4] | -0.0351
S. pneumoniae D39V | -0.0409
